Experimental data published in PubChem BioAssay AID179 (DTP/NCI, 2004).
Active and inactive are the calls of the source.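 How the source made its calls: active means compounds giving half or more protection of infected cells from virus-caused growth loss, again on retest; inactive means the rest.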

Tested on: CEM cells HIV-1 protection, formazan growth assay
Experiment: NCI AIDS Antiviral Assay
Settings: for IC50: measured here: growth of uninfected CEM cells
Method in brief: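 Steps: treat uninfected and HIV-1-infected human CEM cells at five drug levels; quantify growth by soluble formazan; retest any compound reaching 50% protection; classify actives from the retest.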

Structure (SMILES)	EC50 [µM]	IC50 [µM]	outcome
Cc1cc(Br)cc(C)c1NC(=O)C(=O)C(C(=O)c1ccncc1)C1OC(=O)c2ccccc21 (stereo not given)	> 339	> 339	–
CCOCC(=O)N[C@H]1CCc2cc(OC)c(OC)c(OC)c2-c2ccc(OC)c(=O)cc21	> 2	0.00347	–
O=c1ccnc(Nc2ccc[nH]c2=S)[nH]1	> 589	282	–
COc1cccc2c1C(=O)c1ccc3cc(CO)cc(O)c3c1C2=O	> 200	1.12	–
CCC(=O)OC1(c2ccccc2)CCN(CCC(=O)c2ccccc2)CC1C (stereo not given)	> 200	9.55	–
O=C1CCCC/C1=C(\Br)I	–	–	inactive
CC1C(NNC(N)=O)Oc2cc3c(cc2C1c1ccccc1O)OCO3 (stereo not given)	> 200	32.4	–
C/C(C=O)=C\c1ccc(F)cc1	> 219	> 219	–
CC(=O)NC(CCCCNCc1ccccc1)C(=O)NCc1ccccc1 (stereo not given)	> 676	> 676	–
C=CCCCN1C(=O)CCC1=O	–	–	inactive
CC(C)=O.O=C([O-])C(F)(F)F.O=C([O-])C(F)(F)F.O=C([O-])C(F)(F)F.O=C([O-])C(F)(F)F.[Rh+2].[Rh+2]	> 200	> 200	–
CC1=C(C#N)C2(C(=O)N(C)c3ccccc32)C(C#N)=C(C)N1	> 324	27.5	–
N#C/C(N)=C(\C#N)NC=NCCO	> 200	> 200	–
O=C(O)c1cc(C(=C(c2cc(Cl)c(O)c(C(=O)O)c2)c2cc(Cl)c(O)c(C(=O)O)c2)c2cc(Cl)c(O)c(C(=O)O)c2)cc(Cl)c1O	87.1	95.5	–
CC(=O)N1N=C(c2ccc3ccccc3c2O)CC1c1ccc(Cl)cc1Cl (stereo not given)	> 200	22.9	–
O=C(CC1(O)C(=O)Nc2c(Cl)ccc(Cl)c21)c1ccc(F)cc1 (stereo not given)	> 372	70.8	–
COc1ccc2nc(N/N=C/c3sccc3C)cc(C)c2c1	> 200	17.4	–
CCOC(=O)c1cnccc1CC1(C#N)c2ccccc2C=CN1C(=O)c1ccccc1 (stereo not given)	> 200	17.8	–
CC(=O)OC1CC2C(=O)CC1(C)C2(C)C (stereo not given)	> 200	> 200	–
C(=NCCCN1CCN(CCCN=Cc2cccc3ccccc23)CC1)c1cccc2ccccc12	> 200	46.8	–
CC(Sc1ccccc1)C(=O)N1CCCC1 (stereo not given)	> 100	> 100	–
COc1nc2c(nc(N)n2C2OC(CO)C(O)C(O)C2O)c(=O)[nH]1 (stereo not given)	–	–	inactive
O=C1C=CC(=O)c2c(O)cccc21	–	–	inactive
Nc1ccc([C@H]2C(=O)N[C@H]3CCC[C@H]32)cc1	> 417	> 417	–

Structure (SMILES)	EC50 [µM]	IC50 [µM]	outcome
CCOc1ccc(/C=C\c2ccnc3ccccc23)cc1OCC	0.0631	38	–
O=c1/c(=C/c2ccccc2[N+](=O)[O-])sc2nnc(-c3ccco3)n12	> 29.5	> 29.5	–
COc1ccc(OC)c(-n2nnc3ccccc3c2=O)c1	> 302	174	–
Cc1ccc(C)c(NC(=O)C(=O)CC(=O)C2CCOC2=O)c1 (stereo not given)	–	–	inactive
COC12CCCC1S(=O)(=O)C2 (stereo not given)	–	–	inactive
CC(C)[N+](C)(C)CC(O)COc1cccc2ccccc12 (stereo not given)	> 200	> 200	–
COc1cc(/C=C2\SC(=S)N(/C=C3\C(=O)C=C(C)OC3=O)C2=O)cc(OC)c1OC	> 200	18.2	–
CC(C#N)(c1ccccc1)N(CCc1ccccc1)C(=O)Oc1ccccc1 (stereo not given)	> 200	> 200	–
CC1(C)COC1(c1ccccc1)c1cccnc1 (stereo not given)	> 200	148	–
CO/C=C/c1ccc2c(c1)OCO2	–	–	inactive
CC(=O)C1C(=O)C(=O)N(c2ccccc2)C1=O (stereo not given)	> 200	> 200	–
O=c1c2ccccc2nc(/C=C(\O)c2ccncc2)n1-c1ccc(Cl)cc1	> 1.45	> 1.45	–
CN(C)CCNC(=O)Cc1ccccc1Nc1c(Cl)cccc1Cl	> 200	30.2	–
Cc1nc2ccc(Cl)cc2c2c1CCN2c1ccc(F)cc1	> 200	11.5	–
COc1ccc2[nH]c(C(=O)N3CC(CCl)c4c3cc(N)c3ccccc43)cc2c1 (stereo not given)	> 0.2	0.00158	–
COc1cc2cccc(OC)c(=O)c2c(O)c1OC	–	–	inactive
NC1(C(=O)O)CCCC1	> 724	> 724	–
CCOC(=O)c1c2c(n3ccc(C)cc13)C(=O)C(c1ccc([N+](=O)[O-])cc1)S2 (stereo not given)	–	–	inactive
CCCNC(=O)c1cc2ccccc2cc1C(=O)OC	> 5.37	> 5.37	–
CCCCCCCCCCCCS(=O)(=O)O (tested in a mixture with another compound)	> 200	107	–
CN1CCC(=O)/C(=C/c2ccccc2)C1	–	–	inactive
N#CC(c1ccccc1)N(CCCCCCN(C(=O)c1ccccc1)C(C#N)c1ccccc1)C(=O)c1ccccc1 (stereo not given)	> 200	61.7	–
Cc1noc(C)c1-c1onc2ccc(Cl)cc12	> 28.8	> 28.8	–
COC(=O)c1c(C(=O)OC)c(C(=O)OC)c(C(=O)OC)c1C(=O)OC	–	–	inactive
